Values after ≈ are worked out from the molar mass of the structure shown. Read-outs that look alike come from different tables or passages of the source.
Assays:
[1] = system: Vancomycin-resistant Enterococcus faecalis; experiment: MIC microdilution, VR E. faecalis; type: cell-based; conditions: read-out: MIC Vancomycin-resistant Enterococcus faecalis
Description: (§1) Minimum inhibitory concentrations (MICs) were determined using the microdilution method in 96-well format plates. Each of the compounds of Examples was dissolved in dimethyl sulfoxide to a concentration of 2 mg/mL and stored at 4° C. until used. They were diluted in Mueller-Hinton Broth (MHB) and used for MIC determination. The range of concentrations tested was […] final concentration using a two-fold dilution system. Plates were incubated at 37° C. and MIC were recorded after 24 hours of incubation for bacteria.
(§2) Linezolid and vancomycin were used as standard antibiotics, respectively.

[2] = system: Vancomycin-resistant Enterococcus faecium; experiment: MIC microdilution, VR E. faecium; type: cell-based; conditions: read-out: MIC Vancomycin-resistant Enterococcus faecium
Description: as §1, §2

[3] = system: Streptococcus Pneumoniae Pen NS; experiment: MIC microdilution, S. Pneumoniae Pen NS; type: cell-based; conditions: read-out: MIC Streptococcus Pneumoniae Pen NS
Description: as §1, §2

[4] = system: Streptococcus Pneumoniae Pen S; experiment: MIC microdilution, S. Pneumoniae Pen S; type: cell-based; conditions: read-out: MIC Streptococcus Pneumoniae Pen S
Description: as §1, §2

[5] = system: Streptococcus pyogenes; experiment: MIC microdilution, S. pyogenes; type: cell-based; conditions: read-out: MIC Streptococcus pyogenes
Description: as §1, §2

[6] = target: PDF enzyme (Escherichia coli, UniProt P0A6K3); experiment: PDF/FDH coupled enzyme assay, E. coli; type: biochemical
Description: Activities of PDF enzyme for E. coli and S. aureus were determined using PDF/FDH coupled assay. In this coupled assay, the formate released by PDF from its substrate formyl-Methionine-Alanine-Serine (fMAS) is oxidized by coupling enzyme formate dehydrogenase (FDH), reducing one molecule of NAD^+ to NADH, which is measured absorption at 340 nm.

[7] = target: T1, PDF enzyme (Streptococcus pneumoniae serotype 4, UniProt Q9F2F0); experiment: PDF/FDH coupled enzyme assay, Streptococcus Pneumoniae; type: biochemical; conditions: substrate fMAS, absorption at 340 nm
T1 sequence (Q9F2F0 1-203): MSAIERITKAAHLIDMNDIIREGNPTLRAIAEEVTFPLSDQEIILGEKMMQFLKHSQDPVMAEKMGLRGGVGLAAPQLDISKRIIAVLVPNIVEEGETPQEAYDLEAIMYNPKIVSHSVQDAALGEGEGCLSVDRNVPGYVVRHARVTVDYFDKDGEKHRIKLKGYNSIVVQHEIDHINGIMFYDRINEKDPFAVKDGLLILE

[8] = target: PDF enzyme (Streptococcus pyogenes serotype M1, UniProt P68771); experiment: PDF/FDH coupled enzyme assay, Streptococcus pyogenes; type: biochemical
[9] = microdilution, Mueller-Hinton Broth, 37° C., 24 hours

Chain of PDF enzyme (Escherichia coli, UniProt P0A6K3) (P0A6K3 whole entry): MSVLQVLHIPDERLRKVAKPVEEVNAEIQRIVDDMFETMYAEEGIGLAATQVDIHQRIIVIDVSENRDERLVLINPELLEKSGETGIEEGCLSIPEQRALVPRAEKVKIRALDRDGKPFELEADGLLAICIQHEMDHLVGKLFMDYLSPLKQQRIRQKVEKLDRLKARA
Chain of PDF enzyme (Streptococcus pyogenes serotype M1, UniProt P68771) (P68771 whole entry): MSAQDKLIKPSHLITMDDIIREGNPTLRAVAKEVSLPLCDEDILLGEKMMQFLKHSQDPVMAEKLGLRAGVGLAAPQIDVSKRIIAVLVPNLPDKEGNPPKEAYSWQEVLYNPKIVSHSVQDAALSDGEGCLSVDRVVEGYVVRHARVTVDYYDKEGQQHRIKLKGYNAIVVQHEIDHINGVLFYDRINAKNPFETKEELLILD

SMILES	MIC [1, 9] [µg/mL]	MIC [2, 9] [µg/mL]	MIC [3, 9] [µg/mL]	MIC [4, 9] [µg/mL]	MIC [5, 9] [µg/mL]	MIC ([1]; 24 h) [µg/mL]	MIC ([2]; 24 h) [µg/mL]	MIC ([3]; 24 h) [µg/mL]	MIC ([4]; 24 h) [µg/mL]	MIC ([5]; 24 h) [µg/mL]	IC50 [6] [nM]	IC50 [7] [nM]	IC50 [8] [nM]
COc1ccc(NC2CCN(C(=O)[C@@H](NC(=O)[C@H](CC3CCCC3)CN(O)C=O)C(C)(C)C)CC2)c(OC)c1 [Example 24, (R)-2-Cyclopentylmethyl-N-{(S)-1-[4-(2,4-dimethoxy-phenylamino)-piperidine-1-carbonyl]-2,2-dimethyl-propyl}-3-(formyl-hydroxy-amino)-propionamide]	6.3 (≈ 11.5 µM)	0.8 (≈ 1.46 µM)	0.4 (≈ 0.732 µM)	0.2 (≈ 0.366 µM)	0.1 (≈ 0.183 µM)	–	–	–	–	–	–	–	–
CC(C)(C)[C@H](NC(=O)[C@H](CC1CCCC1)CN(O)C=O)C(=O)N1CCC(NCc2ccccn2)CC1 [Example 9, (R)-2-Cyclopentylmethyl-N-((S)-2,2-dimethyl-1-{4-[(pyridine-2-ylmethyl)-amino]-piperidine-1-carbonyl}-propyl)-3-(formyl-hydroxy-amino)-propionamide]	12.5 (≈ 24.9 µM)	12.5 (≈ 24.9 µM)	1.6 (≈ 3.19 µM)	1.6 (≈ 3.19 µM)	0.8 (≈ 1.59 µM)	–	–	–	–	–	–	–	–
CC(C)(C)[C@H](NC(=O)[C@H](CC1CCCC1)CN(O)C=O)C(=O)N1CCC(Nc2ccc(C#N)cc2)CC1 [Example 16, (R)-N-{(S)-1-[4-(4-Cyano-phenylamino)-piperidine-1-carbonyl]-2,2-dimethyl-propyl}-2-cyclopentylmethyl-3-(formyl-hydroxy-amino)-propionamide]	3.1 (≈ 6.06 µM)	0.4 (≈ 0.782 µM)	1.6 (≈ 3.13 µM)	0.1 (≈ 0.195 µM)	0.1 (≈ 0.195 µM)	–	–	–	–	–	–	–	–
CC(C)(C)[C@H](NC(=O)[C@H](CC1CCCC1)CN(O)C=O)C(=O)N1CCC(NCc2ccc(C#N)cc2)CC1 [Example 3, (R)-N-{(S)-1-[4-(4-Cyano-benzylamino)-piperidine-1-carbonyl]-2,2-dimethyl-propyl}-2-cyclopentylmethyl-3-(formyl-hydroxy-amino)-propionamide]	0.8 (≈ 1.52 µM)	0.4 (≈ 0.761 µM)	0.4 (≈ 0.761 µM)	0.1 (≈ 0.19 µM)	0.2 (≈ 0.38 µM)	–	–	–	–	–	–	–	–
CC(C)(C)[C@H](NC(=O)[C@H](CC1CCCC1)CN(O)C=O)C(=O)N1CCC(NCc2cc(F)c(F)cc2F)CC1 [Example 14, (R)-2-Cyclopentylmethyl-N-{(S)-2,2-dimethyl-1-[4-(2,4,5-trifluoro-benzylamino)-piperidine-1-carbonyl]-propyl}-3-(formyl-hydroxy-amino)-propionamide]	1.6 (≈ 2.88 µM)	0.2 (≈ 0.361 µM)	0.4 (≈ 0.721 µM)	0.1 (≈ 0.18 µM)	0.1 (≈ 0.18 µM)	–	–	–	–	–	–	–	–
CC(C)(C)[C@H](NC(=O)[C@H](CC1CCCC1)CN(O)C=O)C(=O)N1CCC(Nc2ccc(N3CCOCC3)c(F)c2)CC1 [Example 25, (R)-2-Cyclopentylmethyl-N-{(S)-1-[4-(3-fluoro-4-morpholin-4-yl-phenylamino)-piperidine-1-carbonyl]-2,2-dimethyl-propyl}-3-(formyl-hydroxy-amino)-propionamide]	12.5 (≈ 21.2 µM)	3.1 (≈ 5.26 µM)	1.6 (≈ 2.71 µM)	0.4 (≈ 0.678 µM)	0.8 (≈ 1.36 µM)	–	–	–	–	–	–	–	–
Cc1ccc(NC2CCN(C(=O)[C@@H](NC(=O)[C@H](CC3CCCC3)CN(O)C=O)C(C)(C)C)CC2)cc1 [Example 18, (R)-2-Cyclopentylmethyl-N-[(S)-2,2-dimethyl-1-(4-p-tolylamino-piperidine-1-carbonyl)-propyl]-3-(formyl-hydroxy-amino)-propionamide]	3.1 (≈ 6.19 µM)	0.4 (≈ 0.799 µM)	0.4 (≈ 0.799 µM)	0.2 (≈ 0.399 µM)	0.1 (≈ 0.2 µM)	–	–	–	–	–	–	–	–
COC(=O)c1ccc(NC2CCN(C(=O)[C@@H](NC(=O)[C@H](CC3CCCC3)CN(O)C=O)C(C)(C)C)CC2)cc1 [Example 21, 4-(1-[(S)-2-[(R)-2-Cyclopentylmethyl-3-(formyl-hydroxy-amino)-propionylamino]-3,3-dimethyl-butyryl]-piperidin-4-ylamino)-benzoic acid methyl ester]	6.3 (≈ 11.6 µM)	1.6 (≈ 2.94 µM)	0.8 (≈ 1.47 µM)	0.2 (≈ 0.367 µM)	0.4 (≈ 0.734 µM)	–	–	–	–	–	–	–	–
COC(=O)c1ccc(CNC2CCN(C(=O)[C@@H](NC(=O)[C@H](CC3CCCC3)CN(O)C=O)C(C)(C)C)CC2)cc1 [Example 7, 4-[(1-{(S)-2-[(R)-2-Cyclopentylmethyl-3-(formyl-hydroxy-amino)-propionylamino]-3,3-dimethyl-butyryl}-piperidin-4-ylamino)-methyl]-benzoic acid methyl ester]	6.3 (≈ 11.3 µM)	3.1 (≈ 5.55 µM)	1.6 (≈ 2.86 µM)	0.4 (≈ 0.716 µM)	0.8 (≈ 1.43 µM)	–	–	–	–	–	–	–	–
CN[C@H](CC(C)C)C(=O)N[C@H]1C(=O)N[C@@H](CC(N)=O)C(=O)N[C@H]2C(=O)N[C@H]3C(=O)N[C@H](C(=O)N[C@H](C(=O)O)c4cc(O)cc(O)c4-c4cc3ccc4O)[C@H](O)c3ccc(c(Cl)c3)Oc3cc2cc(c3O[C@@H]2O[C@H](CO)[C@@H](O)[C@H](O)[C@H]2O[C@H]2C[C@](C)(N)[C@H](O)[C@H](C)O2)Oc2ccc(cc2Cl)[C@H]1O [Vancomycin, reference compound]	–	–	–	–	–	> 50	> 50	0.4 (≈ 0.276 µM)	0.2 (≈ 0.138 µM)	0.4 (≈ 0.276 µM)	–	–	–
COc1ccc(NC2CCN(C(=O)[C@@H](NC(=O)[C@H](CC3CCCC3)CN(O)C=O)C(C)(C)C)CC2)cc1 [Example 19, (R)-2-Cyclopentylmethyl-3-(formyl-hydroxy-amino)-N-{(S)-1-[4-(4-methoxy-phenylamino)-piperidine-1-carbonyl]-2,2-dimethyl-propyl}-propionamide]	3.1 (≈ 6 µM)	1.6 (≈ 3.1 µM)	0.2 (≈ 0.387 µM)	0.4 (≈ 0.774 µM)	0.2 (≈ 0.387 µM)	–	–	–	–	–	–	–	–
COc1ccc(CNC2CCN(C(=O)[C@@H](NC(=O)[C@H](CC3CCCC3)CN(O)C=O)C(C)(C)C)CC2)c(OC)c1 [Example 12, (R)-2-Cyclopentylmethyl-N-{(S)-1-[4-(2,4-dimethoxy-benzylamino)-piperidine-1-carbonyl]-2,2-dimethyl-propyl}-3-(formyl-hydroxy-amino)-propionamide]	6.3 (≈ 11.2 µM)	3.1 (≈ 5.53 µM)	0.8 (≈ 1.43 µM)	0.2 (≈ 0.357 µM)	0.2 (≈ 0.357 µM)	–	–	–	–	–	–	–	–
CC(C)(C)[C@H](NC(=O)[C@H](CC1CCCC1)CN(O)C=O)C(=O)N1CCC(NCc2cc(=O)c(O)co2)CC1 [Example 30, (R)-2-Cyclopentylmethyl-3-(formyl-hydroxy-amino)-N-((S)-1-{4-[(5-hydroxy-4-oxo-4H-pyran-2-ylmethyl)-amino]-piperidin-1-carbonyl}-2,2-dimethyl-propyl)-propionamide]	–	–	–	–	–	–	–	–	–	–	160	50	62
CC(=O)NC[C@H]1CN(c2ccc(N3CCOCC3)c(F)c2)C(=O)O1 [Linezolid, reference compound]	0.8 (≈ 2.37 µM)	1.6 (≈ 4.74 µM)	0.8 (≈ 2.37 µM)	0.8 (≈ 2.37 µM)	0.8 (≈ 2.37 µM)	–	–	–	–	–	–	–	–
CC(C)(C)[C@H](NC(=O)[C@H](CC1CCCC1)CN(O)C=O)C(=O)N1CCC(Nc2ccccc2)CC1 [Example 15, (R)-2-Cyclopentylmethyl-N-[(S)-2,2-dimethyl-1-(4-phenylamino-piperidine-1-carbonyl)-propyl]-3-(formyl-hydroxy-amino)-propionamide]	–	–	–	–	–	1.6 (≈ 3.29 µM)	0.4 (≈ 0.822 µM)	0.4 (≈ 0.822 µM)	0.1 (≈ 0.205 µM)	0.1 (≈ 0.205 µM)	–	–	–
CC(C)(C)[C@H](NC(=O)[C@H](CC1CCCC1)CN(O)C=O)C(=O)N1CCC(NCc2ccc(F)cc2)CC1 [Example 4, (R)-2-Cyclopentylmethyl-N-{(S)-1-[4-(4-fluoro-benzylamino)-piperidine-1-carbonyl]-2,2-dimethyl-propyl}-3-(formyl-hydroxy-amino)-propionamide]	3.1 (≈ 5.98 µM)	0.4 (≈ 0.771 µM)	0.4 (≈ 0.771 µM)	0.2 (≈ 0.386 µM)	0.4 (≈ 0.771 µM)	–	–	–	–	–	–	–	–
CC(C)(C)[C@H](NC(=O)[C@H](CC1CCCC1)CN(O)C=O)C(=O)N1CCC(Nc2ccc(F)cc2F)CC1 [Example 23, (R)-2-Cyclopentylmethyl-N-{(S)-1-[4-(2,4-difluoro-phenylamino)-piperidine-1-carbonyl]-2,2-dimethyl-propyl}-3-(formyl-hydroxy-amino)-propionamide]	–	–	–	–	–	3.1 (≈ 5.93 µM)	0.2 (≈ 0.383 µM)	0.2 (≈ 0.383 µM)	0.05 (≈ 0.0957 µM)	0.1 (≈ 0.191 µM)	–	–	–

Source: patent publication US20100168421A1, “A NEW PEPTIDE DEFORMYLASE INHIBITOR COMPOUND AND MANUFACTURING PROCESS THEREOF” (priority 2007, published 2010)
